Results from patent US20230348369A1 (Cytokinetics, Inc., priority 2020, published 2023).
pEC50: −log10 of the molar value. Like-named read-outs stand apart in the source and are kept apart here.

Target: human NAMPT (Homo sapiens, UniProt P43490)
Test: Human recombinant enzyme assay (NMN fluorescence biochemical assay, activation of NAMPT)
How it was run: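 NMN production is detected fluorometrically (Ex 355/Em 460 nm) 40 min after acetophenone, KOH and formic acid derivatization. Reactions ran 60 min at ambient temperature: 6 nM human NAMPT, nicotinamide 150 μM, PRPP 20 μM, ATP 2.5 mM, buffered at pH 7.2 with 50 mM HEPES plus DTT, CHAPS, NaCl and 100 mM MgCl2.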

[1] = Table A, human recombinant NAMPT, NMN formation, 60 min
[2] = Table A, human recombinant NAMPT, NMN formation, 60 min, read-out: EC50 Human

Sequence of human NAMPT (P43490 whole entry): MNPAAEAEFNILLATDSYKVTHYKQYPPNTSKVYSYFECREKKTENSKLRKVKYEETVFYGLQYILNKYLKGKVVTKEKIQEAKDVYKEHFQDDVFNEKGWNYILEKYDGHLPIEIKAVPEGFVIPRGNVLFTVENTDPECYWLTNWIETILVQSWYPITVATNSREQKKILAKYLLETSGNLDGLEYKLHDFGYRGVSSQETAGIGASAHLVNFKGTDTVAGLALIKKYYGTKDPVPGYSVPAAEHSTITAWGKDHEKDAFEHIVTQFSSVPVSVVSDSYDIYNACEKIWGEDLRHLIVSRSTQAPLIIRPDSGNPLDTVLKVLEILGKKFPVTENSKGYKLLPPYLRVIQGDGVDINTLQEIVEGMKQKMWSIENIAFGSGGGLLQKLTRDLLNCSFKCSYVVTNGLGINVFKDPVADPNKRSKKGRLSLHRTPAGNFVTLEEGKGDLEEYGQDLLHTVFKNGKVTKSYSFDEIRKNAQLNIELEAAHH

Compound	AC1.4 Human [1] [µM]	pEC50 [2]	pEC50
CCc1cccc(C(=O)N2CC3(CC(NC(=O)NCc4ccc(OC)cc4)C3)C2)c1 [Compound 172, 1-(2-(3-ethylbenzoyl)-2-azaspiro[3.3]heptan-6-yl)-3-(4-methoxybenzyl)urea]	1.9	–	4.64
COc1ccc(CNC(=O)NC2CC3(C2)CN(C(=O)c2cccc(C(C)(C)C)c2)C3)cc1 [Compound 174, 1-(2-(3-(tert-butyl)benzoyl)-2-azaspiro[3.3]heptan-6-yl)-3-(4-methoxybenzyl)urea]	2.0	4.53	–
COc1ccc(CNC(=O)NC2CC3(C2)CN(C(=O)c2cccc(OC)c2)C3)cc1 [Compound 176]	2.0	4.66	–
COc1ccc(CNC(=O)NC2CC3(C2)CN(C(=O)c2cccc(O)c2)C3)cc1 [Compound 177, 1-(2-(3-hydroxybenzoyl)-2-azaspiro[3.3]heptan-6-yl)-3-(4-methoxybenzyl)urea]	2.8	–	4.95
COc1ccc(CNC(=O)NC2CC3(C2)CN(C(=O)c2cccc(N4CCCC4)c2)C3)cc1 [Compound 179, 1-(4-methoxybenzyl)-3-(2-(3-(pyrrolidin-1-yl)benzoyl)-2-azaspiro[3.3]heptan-6-yl)urea]	0.8	–	4.91
COc1ccc(CNC(=O)NC2CC3(C2)CN(C(=O)c2cccc(S(C)(=O)=O)c2)C3)cc1 [Compound 180, 1-(4-methoxybenzyl)-3-(2-(3-(methylsulfonyl)benzoyl)-2-azaspiro[3.3]heptan-6-yl)urea]	7.8	4.42	–
COC(=O)c1cccc(C(=O)N2CC3(CC(NC(=O)NCc4ccc(OC)cc4)C3)C2)c1 [Compound 181, methyl 3-(6-(3-(4-methoxybenzyl)ureido)-2-azaspiro[3.3]heptane-2-carbonyl)benzoate]	3.0	4.53	–
O=C(NCc1ccc(Cl)cc1)NC1CC2(C1)CC(NC(=O)c1ccncc1)C2 (stereo not shown) [Compound 185, N-(6-(3-(4-chlorobenzyl)ureido)spiro[3.3]heptan-2-yl)isonicotinamide]	11.6	4.66	–
COc1ccc(CNC(=O)NC2CC3(C2)CN(C(=O)c2cccc(N4CCCC4=O)c2)C3)cc1 [Compound 188, 1-(4-methoxybenzyl)-3-(2-(3-(2-oxopyrrolidin-1-yl)benzoyl)-2-azaspiro[3.3]heptan-6-yl)urea]	0.9	4.87	–
CC(C)(C)OC(=O)N1CC2(CC(NC(=O)NCc3ccc(Cl)cc3)C2)C1 [Compound 197, tert-butyl 6-(3-(4-chlorobenzyl)ureido)-2-azaspiro[3.3]heptane-2-carboxylate]	3.7	4.87	–
O=C(NCc1ccc(Cl)cc1)NC1CC2(C1)CC(NC(=O)c1cccc(O)c1)C2 (stereo not shown) [Compound 200, N-(6-(3-(4-chlorobenzyl)ureido)spiro[3.3]heptan-2-yl)-3-hydroxybenzamide]	17.1	4.74	–
Cc1ccncc1C(=O)NC1CC2(CC(NC(=O)NCc3ccc(Cl)cc3)C2)C1 (stereo not shown) [Compound 205, N-(6-(3-(4-chlorobenzyl)ureido)spiro[3.3]heptan-2-yl)-4-methylnicotinamide]	10.0	4.63	–
Cc1ccc(C(=O)N2CC3(CC(NC(=O)NCc4ccc(F)cc4)C3)C2)cc1 [Compound 207, 1-(4-fluorobenzyl)-3-(2-(4-methylbenzoyl)-2-azaspiro[3.3]heptan-6-yl)urea]	13.7	5.18	–
CN(C)c1ccccc1C(=O)NC1CC2(CC(NC(=O)NCc3ccc(Cl)cc3)C2)C1 (stereo not shown) [Compound 209, N-(6-(3-(4-chlorobenzyl)ureido)spiro[3.3]heptan-2-yl)-2-(dimethylamino)benzamide]	10.6	4.41	–
O=C(NCc1ccc(Cl)cc1)NC1CC2(C1)CC(NS(=O)(=O)c1cccnc1)C2 (stereo not shown) [Compound 213, N-(6-(3-(4-chlorobenzyl)ureido)spiro[3.3]heptan-2-yl)pyridine-3-sulfonamide]	6.8	5.17	–
O=C(NCc1ccc(Cl)cc1)NC1CC2(C1)CN(S(=O)(=O)c1cccc(Cl)c1)C2 [Compound 217, 1-(4-chlorobenzyl)-3-(2-((3-chlorophenyl)sulfonyl)-2-azaspiro[3.3]heptan-6-yl)urea]	19.2	4.70	–
COc1ccccc1S(=O)(=O)N1CC2(CC(NC(=O)NCc3ccc(Cl)cc3)C2)C1 [Compound 218, 1-(4-chlorobenzyl)-3-(2-((2-methoxyphenyl)sulfonyl)-2-azaspiro[3.3]heptan-6-yl)urea]	13.2	4.65	–
O=C(NCc1ccc(Cl)cc1)NC1CC2(C1)CN(C(=O)c1cccc(-n3cccc3)c1)C2 [Compound 219, 1-(2-(3-(1H-pyrrol-1-yl)benzoyl)-2-azaspiro[3.3]heptan-6-yl)-3-(4-chlorobenzyl)urea]	2.9	5.28	–

Continued, in another order:

AC1.4 Human [1] [µM]	pEC50 [2]	Compound	pEC50
1.7	4.69	COc1ccc(CNC(=O)NC2CC3(C2)CN(C(=O)c2cccc(C(C)C)c2)C3)cc1 [Compound 173, 1-(2-(3-isopropylbenzoyl)-2-azaspiro[3.3]heptan-6-yl)-3-(4-methoxybenzyl)urea]	–
5.5	4.26	COc1ccc(CNC(=O)NC2CC3(C2)CN(C(=O)c2cccc(C(C)(C)O)c2)C3)cc1 [Compound 175, 1-(2-(3-(2-hydroxypropan-2-yl)benzoyl)-2-azaspiro[3.3]heptan-6-yl)-3-(4-methoxybenzyl)urea]	–
3.1	4.67	COc1ccc(CNC(=O)NC2CC3(C2)CN(C(=O)c2cccc(N(C)C)c2)C3)cc1 [Compound 178, 1-(2-(3-(dimethylamino)benzoyl)-2-azaspiro[3.3]heptan-6-yl)-3-(4-methoxybenzyl)urea]	–
11.2	4.25	Cc1cccc(N2CC[C@]3(C2)C[C@@H](NC(=O)NCc2ccc(Cl)cc2)C3)n1 [Compound 183, 1-(4-chlorobenzyl)-3-((2r,4s)-6-(6-methylpyridin-2-yl)-6-azaspiro[3.4]octan-2-yl)urea]	–
10.0	4.42	O=C(NCc1ccc(Cl)cc1)NC1CC2(C1)CC(NC(=O)c1cccnc1)C2 (stereo not shown) [Compound 184, N-(6-(3-(4-chlorobenzyl)ureido)spiro[3.3]heptan-2-yl)nicotinamide]	–
16.0	4.27	Cc1cc(C(=O)NC2CC3(CC(NC(=O)NCc4ccc(Cl)cc4)C3)C2)ccn1 (stereo not shown) [Compound 186, N-(6-(3-(4-chlorobenzyl)ureido)spiro[3.3]heptan-2-yl)-2-methylisonicotinamide]	–
1.4	4.67	COc1ccc(CNC(=O)NC2CC3(C2)CN(C(=O)c2cccc(-n4cccc4)c2)C3)cc1 [Compound 189, 1-(2-(3-(1H-pyrrol-1-yl)benzoyl)-2-azaspiro[3.3]heptan-6-yl)-3-(4-methoxybenzyl)urea]	–
1.8	4.47	COc1ccc(CNC(=O)NC2CC3(C2)CN(C(=O)c2cccc(N4CCCCC4)c2)C3)cc1 [Compound 190, 1-(4-methoxybenzyl)-3-(2-(3-(piperidin-1-yl)benzoyl)-2-azaspiro[3.3]heptan-6-yl)urea]	–
1.3	4.62	COc1ccc(CNC(=O)NC2CC3(C2)CN(C(=O)c2cccc(N4CCOCC4)c2)C3)cc1 [Compound 191, 1-(4-methoxybenzyl)-3-(2-(3-morpholinobenzoyl)-2-azaspiro[3.3]heptan-6-yl)urea]	–
12.1	4.28	Cc1ccc(C(=O)NC2CC3(CC(NC(=O)NCc4ccc(Cl)cc4)C3)C2)cn1 (stereo not shown) [Compound 192, N-(6-(3-(4-chlorobenzyl)ureido)spiro[3.3]heptan-2-yl)-6-methylnicotinamide]	–
3.6	4.84	Cc1ccccc1C(=O)NC1CC2(CC(NC(=O)NCc3ccc(Cl)cc3)C2)C1 (stereo not shown) [Compound 193, N-(6-(3-(4-chlorobenzyl)ureido)spiro[3.3]heptan-2-yl)-2-methylbenzamide]	–
8.8	5.23	COc1cccc(C(=O)NC2CC3(CC(NC(=O)NCc4ccc(Cl)cc4)C3)C2)c1 (stereo not shown) [Compound 194, N-(6-(3-(4-chlorobenzyl)ureido)spiro[3.3]heptan-2-yl)-3-methoxybenzamide]	–
17.1	4.63	CS(=O)(=O)c1cccc(C(=O)NC2CC3(CC(NC(=O)NCc4ccc(Cl)cc4)C3)C2)c1 (stereo not shown) [Compound 195, N-(6-(3-(4-chlorobenzyl)ureido)spiro[3.3]heptan-2-yl)-3-(methylsulfonyl)benzamide]	–
13.6	4.57	Cc1cnccc1C(=O)NC1CC2(CC(NC(=O)NCc3ccc(Cl)cc3)C2)C1 (stereo not shown) [Compound 204, N-(6-(3-(4-chlorobenzyl)ureido)spiro[3.3]heptan-2-yl)-3-methylisonicotinamide]	–
9.6	4.93	O=C(NCc1ccc(Cl)cc1)NC1CC2(C1)CC(NC(=O)c1ccccc1O)C2 (stereo not shown) [Compound 208, N-(6-(3-(4-chlorobenzyl)ureido)spiro[3.3]heptan-2-yl)-2-hydroxybenzamide]	–
3.6	4.51	Cc1ccc(C(=O)N2CC3(CC(NC(=O)NCc4ccc(C(N)=O)nc4)C3)C2)cc1 [Compound 215, 5-((3-(2-(4-methylbenzoyl)-2-azaspiro[3.3]heptan-6-yl)ureido)methyl)picolinamide]	–
4.9	4.68	O=C(NCc1ccc(Cl)cc1)NC1CC2(C1)CN(S(=O)(=O)c1ccccc1Cl)C2 [Compound 216, 1-(4-chlorobenzyl)-3-(2-((2-chlorophenyl)sulfonyl)-2-azaspiro[3.3]heptan-6-yl)urea]	–
